{"source": "patent US10912712B2", "about": "“Treatment of bleeding by non-invasive stimulation” (The Feinstein Institutes for Medical Research, priority 2004, dated 2021)", "key": {"[1]": {"tested_on": "Male Balb/c Mice", "assay": "Bleed time after tail amputation in mice, GTS-21 (Example 10)", "type": "in vivo", "conditions": "GTS-21 4 mg/kg IP vs PBS, 1 hour before, anesthetized, 2 mm of tail amputated", "description": "Male Balb/c mice (around 25 g) were injected (intraperitoneally (IP)) with cholinergic agonist GTS-21 (4 mg/kg in 125 µL PBS) or PBS (vehicle control, 125 µL). 1 hour later, mice were anesthetized with ketamine/xylazine (100 mg/kg/10 mg/kg, intraperitoneally)."}, "[2]": {"tested_on": "Male Balb/c Mice", "assay": "Effect of alpha-7 antagonist MLA given before nicotine on bleed time (Example 13)", "type": "in vivo", "description": "Male Balb/c mice (around 25 g) were divided into three groups: A, B and C. Groups A and C were injected with the alpha-7 antagonist methyllycaconitine, (MLA; 4 mg/kg, IP, in 200 µL PBS), group B was injected with PBS (vehicle control, 125 µ1). 15 minutes later, Group A was injected with PBS (vehicle control, 125 µl) and groups B and C were injected with nicotine (0.3 mg/kg in 125 µL PBS). 30 minutes later, mice were anesthetized (ketamine [100 mg/kg, IP] and xylazine [10 mg/kg, IP]). After immersing tails in 37° C. saline for 5 minutes to normalize vasodilatory state, 2 mm of tail was amputated with a scalpel, and returned to the saline bath (modified from Nagashima et al., Journal of Clinical Investigation (109) 101-110, (2002); Snyder et al., Nature Medicine (5), 64-70, (1999).\nOnce bleeding stopped, animals were euthanized by CO2 asphyxiation. Data were recorded in seconds, and are presented as mean+/− SE. Student's t-test was used for statistical analysis."}}, "note": "Entries after “also recorded” stand apart in the source; their conditions may differ."}
{"smiles": "COc1ccc(/C=C2\\CCCN=C2c2cccnc2)c(OC)c1", "note": "[GTS-21]", "values": [{"measurement": "total bleeding time", "setting": "[1]", "result": "significantly reduced the bleed time; also recorded: decrease in bleed time"}]}
{"smiles": "CCN1C[C@]2(COC(=O)c3ccccc3N3C(=O)C[C@H](C)C3=O)CC[C@H](OC)[C@@]34[C@@H]5C[C@H]6[C@H](OC)[C@@H]5[C@](O)(C[C@@H]6OC)[C@@](O)([C@@H](OC)[C@H]23)[C@@H]14", "note": "[MLA, methyllycaconitine]", "values": [{"measurement": "effect on nicotine induced reduction of bleed time", "setting": "[2]; MLA 4 mg/kg IP 15 minutes before nicotine 0.3 mg/kg", "result": "inhibited nicotine induced reduction of bleed time"}]}
{"smiles": "CN1CCCC1c1cccnc1", "note": "(stereo not drawn) [nicotine]", "values": [{"measurement": "total bleeding time", "setting": "[2]; nicotine 0.3 mg/kg after PBS pretreatment, 30 minutes later anesthetized, 2 mm of tail amputated", "result": "reduction in bleed time"}]}
